“And” between values parts separate entries of the source, which are not always exact repeats. Identical values can stand only once. Counter-ions that a name gives are not always drawn.
Legend:
[1] = tested on: TGF-β1 mRNA; test: TGF-β1 mRNA expression (qRT-PCR) in Yucatan pig skin wound sites; assay type: in vivo, Yucatan minipigs; conditions: Yucatan pig skin wound sites after treatments; for TGF-β1 mRNA Expression Fold Relative to Untreated Unwounded Control: individual animals 7369, 7370, 7371, duplicate sets 1 and 2, beta actin reference gene
Description: (§1) In this experiment, multiple full-thickness excision wounds were made to the dorsum of Yucatan minipigs, and the wound sites were allowed to be re-epithelialized adequately. At four weeks post-wound, the wound sites had normal to pink vascularity and had pliability. Epidermal hyperplasia was observed, as expected for regenerative responses in the full-thickness wounds.
(§2) On Day 28 post-wound, a dose (e.g., 1%) of axitinib, nintedanib, riociguat, sorafenib, sunitinib, and/or lenvatinib was administered into the dermal tissue at or around the wound sites, once every two weeks on two occasions. One wound site was left untreated as the control for each pig. Please note that the particular parameters in this example are only for illustration. One skilled in the art would appreciate that the dosages, administration methods, treatment regimen, and the administration sites may be varied to achieve similar results.
In addition, total mRNA was isolated from skin biopsies of the treated wound sites and the untreated unwounded sites of the pigs. The mRNA samples were used to prepare cDNA and analyzed via qRT-PCR. The TGF-β1 expression levels were assessed using beta actin as a reference gene.

[2] = tested on: full-thickness excision wounds; test: Histology of full-thickness excision wounds in Yucatan minipigs (fibroplasia, neovascularization); assay type: in vivo; conditions: Yucatan minipig wound sites after two doses, Day 59, scale 1 (minimal) to 5 (severe); for Neovascularization; dermis, average score: untreated 2.33; for Fibroplasia; dermis, average score: untreated 3.33
Description: as §1, §2
On Day 59 post wound, the minipigs were sacrificed and dermal tissues were collected for qualitative and quantitative evaluation using hematoxylin and eosin, and Mason's Trichrome staining. Dermal fibroplasia was characterized by increased numbers of fibroblasts in the dermis suspended in variable amounts of collagen in wounds.

[3] = tested on: rabbit ear hypertrophic scar; test: Histopathology of rabbit ear wounds (neovascularization, fibrosis, re-epithelization); assay type: in vivo, New Zealand white rabbits; design: key to Total Score, Treated Mean: aggregate of neovascularization, fibrosis, re-epithelization grades; key to Neovascularization score, Treated Mean / Fibrosis/Collagen score, Treated Mean / Re-epithelization score, Treated Mean: five-step severity grade: minimal, mild, moderate, marked, severe; conditions: rabbit ear wound, intradermal dosing of 1 wt. %
Protocol: In New Zealand white rabbits, maintained under a surgical plane of anesthesia, trauma stimulation of the skin on the ventral surface of both ears is initiated on Day 1. Trauma sites are evaluated on Days 8, 15, 22, 29, 36, and 43. On days 15 and 29, each site is dosed with test compounds (e.g., 1% w/w, 100 μl) by intradermal or intralesional injections.
At necropsy, each treatment site was harvested and preserved for hematoxylin and […] and Mason's trichrome stainings. Each lesion was examined histologically and graded for neovascularization, fibrosis and re-epithelization using a five-step/severity grading system (minimal, mild, moderate, marked, and severe). The average total score is an aggregation of these microscopic findings relating to an inflammatory response.

[4] = tested on: benign prostate hyperplasia; test: Testosterone and phenylephrine induced benign prostate hyperplasia in rats; assay type: in vivo, Wistar rats; design: key to epithelial hyperplasia score, dorsolateral prostate, representative image / epithelial hyperplasia score, ventral prostate, representative image: severity grade 0 = not present to 5 = severe
Protocol: BPH is a true hyperplastic process. Histologic studies have documented an increase in cell number. A study was conducted, therefore, to determine the effects of test compounds and vehicle on testosterone (TE) and phenylephrine (PE) induced benign prostate hyperplasia in rats. Male Wistar rats were induced with testosterone (2 mg/kg) plus phenylephrine (5 mg/kg) administered daily by subcutaneous injection on days 5 through 32. Vehicle or test compounds (all at 1% w/w), nintedanib, sunitinib, lenvatinib, and 0.5% doxazosin mesylate, were administered by intra-prostate injection (0.4 ml) in dorsolateral and ventral lobes on days 1 and 18. Animals were euthanized on day 32. Body weights were determined and prostate glands were harvested. The experimental design is outlined in Table 6.
At necropsy, the ventral and dorsolateral lobes of the prostate were separated and then cut into halves. The left halves were fixed in 10% neutral buffered formalin, sectioned, and stained with Hematoxylin and Eosin (H&E). Histological changes in these sections were scored. Epithelial hyperplasia was recognized as an increase in epithelial cells within normal-appearing gland profiles, primarily reflected by stratification of epithelial cells and increased presence of epithelial tufting and papillary projections. A severity grade of 0 (not present) through 5 (severe) was assigned to each sample.

[5] = tested on: subconjunctival scarring; test: Bleb survival after glaucoma filtration surgery in rabbit eyes; assay type: in vivo, rabbits
Protocol: In order to investigate the anti-scarring effect of topically applied test compounds following ocular surgeries, glaucoma filtration surgery was performed on rabbit eyes. Postoperative subconjunctival wound healing is a major cause of late bleb failure after glaucoma filtration surgery in humans. Select multikinase inhibitors were tested for effect on bleb survival over time. Inhibition of subconjunctival fibrosis following surgery will improve bleb survival. Vehicle was used as a negative control and pirfenidone was used a positive control.
A scleral tract was created in the left eyes superiorally by tunneling a beveled 22-gauge intravenous cannula through the sclera, beginning behind the limbus and continuing until the cannula is visible in the anterior chamber. The cannula was flushed with sodium heparin (1000 units) prior to placement. The cannula needle was withdrawn and the cannula advanced beyond the pupillary margin to prevent iris blockage of the tube. The cannula was trimmed approximately 2 mm and secured to the sclera using suture. Both the Tenon's and the conjunctiva were sutured with 9-0 Prolene. Six rabbits were used per group and the left eye of each rabbit underwent glaucoma filtration surgery. The treatment groups include vehicle control, pirfenidone (1%, w/v) as a positive control, sorafenib (0.3%, w/v), and lenvatinib (0.3%, w/v). Eyedrops (35 uL) were topically applied to the eyes following surgery three times day for 30 days. All animals were sacrificed on Day 30.
Bleb was monitored throughout the study. Bleb volumes were measured with the use of calibrated calipers. […] There were differences noted between groups at Day 7, and the majority of blebs were gone by Day 14 through Day 30 indicating bleb failure due to subconjunctival scarring. Results of the vehicle and pirfenidone groups were similar to those reported in the literature (Zhong H et al., Invest Ophthalmol Vis Sci, 52: 3136-3142, 2011).

[6] = tested on: suture-induced ocular fibrosis; test: Rabbit corneal suture-induced ocular fibrosis model; assay type: in vivo, rabbits; conditions: topical three times daily, 10-day observation period
Description: In order to investigate the anti-fibrotic effect of test compounds following wounding in the eye, a suture-induced ocular fibrosis model was used. Suture was placed intrastromally under a microscope in the cornea of rabbits. In each eye, one 9.0 silk suture was placed, in a vertical position, temporal to the corneal center and a second suture was placed nasal to the corneal center. Each suture had two stromal incursions approximately 2 mm from the limbus. Test compounds having certain spectrum of multikinase inhibition activities and/or vehicle were topically instilled (35 uL/eye) in the eyes three times daily for 10 days the day following surgery. The treatment groups include vehicle, nintedanib (0.3%, w/v), pirfenidone (1%, w/v), riociguat (0.3%, w/v), sorafenib (0.3%, w/v) and lenvatinib (0.3%, w/v). Six left eyes were used per treatment group.
The animals were sacrificed on Day 11 and the eyes enucleated and dissected for histopathological evaluation.

[7] = five-step severity grading (minimal to severe)
[8] = TE and PE induced rats, intra-prostate injection 0.4 ml on days 1 and 18 (1% w/w; doxazosin mesylate 0.5%), severity grade 0 (not present) through 5 (severe), induced vehicle score=4

`CNC(=O)c1ccccc1Sc1ccc2c(/C=C/c3ccccn3)n[nH]c2c1` [axitinib] was tested, and the “TGF-β1 mRNA Expression Fold Relative to Untreated Unwounded Control” value [1] was 0.89 fold and 0.68 fold (2×) and 0.64 fold and 0.37 fold and 0.78 fold, the “Neovascularization; dermis, average score” value (shortened to “Neovascularization; dermis”) [2] was “(1.67)” and the “Fibroplasia; dermis, average score” value [2] was “(2.33)”. The “average total score of test wounds, fold lower than untreated wounds” value [3] was “about 1.3 fold”, the “Total Score, Treated Mean” value ([3]; aggregation of microscopic findings) was 4.6 and the “Fibrosis/Collagen score, Treated Mean” value [3, 7] was 3.3. For the same compound, the “Neovascularization score, Treated Mean” value [3, 7] was 1 and the “Re-epithelization score, Treated Mean” value [3, 7] was 0.3.

For `COc1cc2nc(N3CCN(C(=O)C4COc5ccccc5O4)CC3)nc(N)c2cc1OC` (centres unmarked) [doxazosin, doxazosin mesylate], the “epithelial hyperplasia score, dorsolateral prostate, representative image” value [4, 8] was 3, the “epithelial hyperplasia score, ventral prostate, representative image” value [4, 8] was 3 and the “glandular hyperplasia compared to untreated TE/PE induced prostates” value ([4]; TE and PE induced rats, intra-prostate injection on days 1 and 18) was “demonstrated reduction of glandular hyperplasia”.

`Cc1ccc(=O)n(-c2ccccc2)c1` [pirfenidone] was tested, and the “bleb survival on Day 7” value ([5]; eyedrops 35 uL three times a day, pirfenidone 1% w/v, lenvatinib 0.3% w/v, compared to vehicle and sorafenib groups) was “kept bleb survival on Day 7” and the “bleb remaining / bleb failure on Day 30” value ([5]; eyedrops three times a day for 30 days, 6 animals per group) was “demonstrated bleb failure”.

For `COC(=O)N(C)c1c(N)nc(-c2nn(Cc3ccccc3F)c3ncccc23)nc1N` [riociguat], the “reduction of TGF-β1 mRNA expression levels at treated wounds” value [1] was “most effective”, the “TGF-β1 mRNA Expression Fold Relative to Untreated Unwounded Control” value [1] was 0.60 fold and 0.76 fold and 0.87 fold and 0.39 fold and 0.49 fold and 0.8 fold and the “Neovascularization; dermis” value [2] was “(2.67)”. The “Fibroplasia; dermis, average score” value [2] was “(2.67)” and the “gross ocular observations: conjunctival congestion and swelling” value [6] was “slightly more severe reaction”.

In the case of `CCN(CC)CCNC(=O)c1c(C)[nH]c(/C=C2\C(=O)Nc3ccc(F)cc32)c1C` [sunitinib], the “TGF-β1 mRNA Expression Fold Relative to Untreated Unwounded Control” value [1] is reported as 0.50 fold and 0.53 fold and 0.48 fold and 0.45 fold and 0.64 fold and 1.86 fold, the “Neovascularization; dermis” value [2] is reported as “(2.33)” and the “Fibroplasia; dermis, average score” value [2] is reported as “(2.67)”. For the same compound, the “epithelial hyperplasia score, ventral prostate, representative image” value ([4]; 1 % strength) was 3 and the “epithelial hyperplasia score, dorsolateral prostate, representative image” value [4, 8] was 3.
